These are literature values, as cited in patent publication US20100279989A1, “ORAL CONTRACEPTION WITH TRIMEGESTONE” (GRÜNENTHAL GMBH, priority 2005, published 2010).

This series concerns ovulation. As to conditions: p.o.

As for `C[C@H](O)C(=O)[C@@]1(C)CC[C@H]2[C@@H]3CCC4=CC(=O)CCC4=C3CC[C@@]21C` [trimegestone, 17β-[(S)-2-hydroxypropanoyl]-17α-methyl-estra-4,9-dien-3-one], the ovulation inhibition dose is 0.5 mg per day.
